Data reported in ChEMBL document CHEMBL1158204, “Metabolites from an Antarctic sponge-associated bacterium, Pseudomonas aeruginosa” (1996).
The source made the active and inactive calls. The calls are words filed in the database; no cut-off is given here.

How the values were obtained:
Type in all cases: functional
Conditions in all cases: for MIC: 48 h
[1] = system: Bacillus cereus; experiment: Antibacterial activity against Bacillus cereus after 2 days by disk assay
[2] = system: Micrococcus luteus; experiment: Antibacterial activity against Micrococcus luteus after 2 days by disk assay
[3] = system: Staphylococcus aureus; experiment: Antibacterial activity against Staphylococcus aureus after 2 days by disk assay

Structure (SMILES) | Activity [1] | Activity [2] | Activity [3] | MIC [1] [mg/L] | MIC [2] [mg/L] | MIC [3] [mg/L]
CC(C)[C@@H]1NC(=O)[C@@H]2CCCN2C1=O | inactive | inactive | inactive |  |  | 
O=C1N[C@@H](Cc2ccc(O)cc2)C(=O)N2CCC[C@@H]12 | inactive | inactive | inactive |  |  | 
NC(=O)c1cccc2nc3ccccc3nc12 |  |  |  | < 0.5 | < 5 | < 5
CC(C)C[C@@H]1NC(=O)[C@@H]2CCCN2C1=O | inactive | inactive | inactive |  |  | 
O=C(O)c1cccc2nc3ccccc3nc12 [PHENAZINE-1-CARBOXYLIC ACID] |  |  |  | < 0.5 | < 5 | < 5
O=C1N[C@@H](Cc2ccccc2)C(=O)N2CCC[C@@H]12 | inactive | inactive | inactive |  |  | 
CC[C@H](C)[C@@H]1NC(=O)[C@@H]2CCCN2C1=O | inactive | inactive | inactive |  |  | 
CSCC[C@@H]1NC(=O)[C@@H]2CCCN2C1=O | inactive | inactive | inactive |  |  | 
